{
  "source": "patent US20230305016A1",
  "about": "“TEST KIT AND METHOD OF DETERMINING TRYPTOPHAN IN EXTRACTS OF FAECAL SAMPLES” (IMMUNDIAGNOSTIK AG, priority 2020, published 2023)",
  "key": {"depression": {"test_system": "depression", "details": "cited from earlier work; for side effects: adults; for effective in alleviating depression in adults: versus placebo"}, "GLUT5": {"test_system": "GLUT5", "details": "mice; duodenum and adipose tissue; cited from earlier work"}, "[1]": {"design": "key to Oxidation into 14CO2: x: Detected but not quantified; xx: Detected but not quantified", "details": "rats, cited from earlier work"}, "[2]": {"details": "carboxyl group; cited from earlier work"}, "[3]": {"details": "rat, in vivo; cited from earlier work"}, "[4]": {"assay": "Alkaline hydrolyzation of spiked fructose-tryptophan Amadori product in stool extract", "format": "physicochemical", "details": "10 M NaOH, 100° C., 20 min", "protocol": "5 mg fructose-tryptophan Amadori product (MW=366.37 Da) was dissolved in 2.27 ml aqua dest. (6 mM/L). The concentration of peptide groups in this solution was determined to be 4.36 mM/L using a BCA test (Smith P K et al, Measurement of protein using bicinchoninic acid, in: Analytical Biochemistry […], 150(1):76-85, doi:10.1016/0003-2697(85)90442-7). This concentration was taken in the spiking experiments. The IDK® Amino Extract (dilution 1:50) was spiked with fructose-tryptophan Amadori product (not the raw stool) to achieve a target concentration the spiked fecal extract of 6 μM Amadori adduct/L. This corresponds to a spiking of 300 μM fructose-tryptophan Amadori product per gram stool as the stool was diluted 1:50 in the extract.\nThe spiking and hydrolyzation was carried out as follows: 70 μl stool extract were spiked with 10 μl 60 μM/L fructose-tryptophan Amadori product (as determined by BCA) and 10 μl 10 M NaOH. This solution was incubated at 100° C. for 20 min. to achieve hydrolyzation of all adducts and centrifuged at 550 rpm for removal of any precipitate. Finally, 10 μl 10 M HCl was added to neutralize (dilution 1:10) the solution prior measurement of tryptophan. In case of a spiking with fructose or tryptophan, the spiking solution contained 60 μM/L fructose and/or tryptophan each."}, "[5]": {"details": "% of the ingested/injected material"}},
  "note": "Like-named read-outs stand apart in the source and are kept apart here.",
  "data": [
    {"molecule": "N[C@@H](Cc1c[nH]c2ccc(O)cc12)C(=O)O", "note": "[5-HTP, 5-hydroxytryptophan]", "values": [
      {"measurement": "side effects", "setting": "depression", "result": "may have serious side effects"},
      {"measurement": "effective in alleviating depression in adults", "setting": "depression", "result": "better than placebo"}
    ]},
    {"molecule": "O=S(=O)(c1ccccc1)N(CC(F)(F)F)c1ccc(C(O)(C(F)(F)F)C(F)(F)F)cc1", "note": "[T0901317]", "values": [
      {"measurement": "GLUT5 mRNA", "setting": "GLUT5", "result": "increase"},
      {"measurement": "GLUT5 protein levels", "setting": "GLUT5", "result": "increased"}
    ]},
    {"molecule": "N[C@@H](Cc1c[nH]c2ccccc12)C(=O)O", "note": "[^14C-Tryptophan]", "values": [
      {"measurement": "Retention in liver", "setting": "[1]; [5]", "result": 0.7, "unit": "%"},
      {"measurement": "urinary excretion", "setting": "[1]; [5]", "result": 60, "unit": "%"},
      {"measurement": "Oxidation into 14CO2", "setting": "[1]; detected but not quantified", "result": "xx^b"},
      {"measurement": "urinary excretion", "setting": "[1]; summary of Table 1", "result": "~60", "unit": "%"}
    ]},
    {"molecule": "N[C@@H](Cc1c[nH]c2ccccc12)C(=O)O", "note": "[tryptophan]", "values": [
      {"measurement": "pKa", "setting": "[2]", "result": "2,38"},
      {"measurement": "side effects", "setting": "depression", "result": "may have serious side effects"},
      {"measurement": "effective in alleviating depression in adults", "setting": "depression", "result": "better than placebo"}
    ]},
    {"molecule": "NC(CCCCNCC(=O)C(O)C(O)C(O)CO)C(=O)O", "note": "(stereo not shown) [ε-Lysine]", "values": [
      {"measurement": "absorption in the intestine", "setting": "[3]", "result": "NOT absorbed in the intestine"}
    ]},
    {"molecule": "D-fructose-L-tryptophan [fructose-tryptophan Amadori product]", "values": [
      {"measurement": "hydrolyzation of added adduct", "setting": "[4]", "result": "hydrolyzed"}
    ]}
  ]
}
